Results from patent US9133204B2, “5-membered heterocyclic amides and related compounds” (H. Lundbeck A/S, priority 2007, dated 2015).

These molecules were tested against T1, P2X7 receptor (Homo sapiens, UniProt Q99572) (assay: High throughput P2X7 calcium mobilization assay (Example 4A)). Conditions: SH-SY5Y cells; 50% decrease in fluorescence response of cells exposed to 80 μM BzATP; Table I.
T1 construct: host or cells: SH-SY5Y
T1 sequence (Q99572 1-595): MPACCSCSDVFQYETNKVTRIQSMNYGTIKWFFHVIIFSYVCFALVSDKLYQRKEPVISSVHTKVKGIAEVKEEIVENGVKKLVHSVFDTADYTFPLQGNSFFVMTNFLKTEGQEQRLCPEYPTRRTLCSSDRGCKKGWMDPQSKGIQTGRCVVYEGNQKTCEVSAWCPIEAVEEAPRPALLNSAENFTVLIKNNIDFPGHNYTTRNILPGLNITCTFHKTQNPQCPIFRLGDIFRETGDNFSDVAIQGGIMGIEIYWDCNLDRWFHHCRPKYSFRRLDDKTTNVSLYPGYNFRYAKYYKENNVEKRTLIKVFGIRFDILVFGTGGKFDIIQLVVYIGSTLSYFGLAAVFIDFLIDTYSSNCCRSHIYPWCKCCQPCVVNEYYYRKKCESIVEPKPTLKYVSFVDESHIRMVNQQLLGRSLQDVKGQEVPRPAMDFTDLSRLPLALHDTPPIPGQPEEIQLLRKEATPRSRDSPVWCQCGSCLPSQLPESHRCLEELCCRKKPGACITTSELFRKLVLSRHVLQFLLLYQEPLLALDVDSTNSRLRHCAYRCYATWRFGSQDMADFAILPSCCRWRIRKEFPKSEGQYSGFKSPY
Format: cell-based
Method in brief: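 SH-SY5Y cells loaded with 2.3 μM Fluo-4 AM for 1 h at 37 °C, then preincubated 1 h at room temperature with test compound (final 1–2500 nM) in low-sodium sucrose buffer, pH 7.4. Antagonism measured against 80 μM BzATP (about EC50) as peak FLIPR calcium fluorescence over 2 min, corrected by no-agonist background.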

IC50, ≤ 2 µM:
CC(C)CC(CNC(=O)c1cn(-c2ncc(F)c(N)n2)nc1C(F)(F)F)c1cccnc1 (centres unmarked) [Compound 139, 1-(4-amino-5-fluoropyrimidin-2-yl)-N-(4-methyl-2-pyridin-3-ylpentyl)-3-(trifluoromethyl)-1H-pyrazole-4-carboxamide]
CC(C)CC(CNC(=O)c1cn(-c2ncc(F)c(N)n2)nc1C(F)(F)F)c1ccc(Cl)cc1 (centres unmarked) [Compound 140, 1-(4-amino-5-fluoropyrimidin-2-yl)-N-[2-(4-chlorophenyl)-4-methylpentyl]-3-(trifluoromethyl)-1H-pyrazole-4-carboxamide]
Nc1nc(-n2cc(C(=O)NCC3(c4ccc(Cl)cc4)CCCCC3)c(C(F)(F)F)n2)ncc1F [Compound 141, 1-(4-amino-5-fluoropyrimidin-2-yl)-N-{[1-(4-chlorophenyl)cyclohexyl]methyl}-3-(trifluoromethyl)-1H-pyrazole-4-carboxamide]
Cn1ccnc1-n1cc(C(=O)NCC23CC4CC(CC(C4)C2)C3)c(C(F)(F)F)n1 [Compound 142, N-(adamantan-1-ylmethyl)-1-(1-methyl-1H-imidazol-2-yl)-3-(trifluoromethyl)-1H-pyrazole-4-carboxamide]
COc1ccc(-n2cc(C(=O)NCC34CC5CC(CC(C5)C3)C4)c(C(C)C)n2)nn1 [Compound 143, N-(adamantan-1-ylmethyl)-3-isopropyl-1-(6-methoxypyridazin-3-yl)-1H-pyrazole-4-carboxamide]
Nc1nc(-n2cc(C(=O)NCC3(N4CCOCC4)CCCCC3)c(C(F)(F)F)n2)ncc1F [Compound 144, 1-(4-amino-5-fluoropyrimidin-2-yl)-N-[(1-morpholin-4-ylcyclohexyl)methyl]-3-(trifluoromethyl)-1H-pyrazole-4-carboxamide]
O=C(NCC12CC3CC(CC(C3)C1)C2)c1cn(-c2ncccn2)nc1C1CC1 [Compound 145, N-(adamantan-1-ylmethyl)-3-cyclopropyl-1-pyrimidin-2-yl-1H-pyrazole-4-carboxamide]
Nc1ccnc(-n2cc(C(=O)NCC34CC5CC(CC(C5)C3)C4)c(C3CC3)n2)n1 [Compound 146, N-(adamantan-1-ylmethyl)-1-(4-aminopyrimidin-2-yl)-3-cyclopropyl-1H-pyrazole-4-carboxamide]
Nc1nccnc1-n1cc(C(=O)NCC23CC4CC(CC(C4)C2)C3)c(C(F)(F)F)n1 [Compound 147, N-(adamantan-1-ylmethyl)-1-(3-aminopyrazin-2-yl)-3-(trifluoromethyl)-1H-pyrazole-4-carboxamide]
Nc1cnc(-n2cc(C(=O)NCC34CC5CC(CC(C5)C3)C4)c(C(F)(F)F)n2)cn1 [Compound 148, N-(adamantan-1-ylmethyl)-1-(5-aminopyrazin-2-yl)-3-(trifluoromethyl)-1H-pyrazole-4-carboxamide]
CC(CNC(=O)c1cn(-c2ncc(F)c(N)n2)nc1C(F)(F)F)c1ccc(Cl)cc1 (centres unmarked) [Compound 149, 1-(4-amino-5-fluoropyrimidin-2-yl)-N-[2-(4-chlorophenyl)propyl]-3-(trifluoromethyl)-1H-pyrazole-4-carboxamide]
CCCC(CNC(=O)c1cn(-c2ncc(F)c(N)n2)nc1C(F)(F)F)c1ccc(Cl)cc1 (centres unmarked) [Compound 150, 1-(4-amino-5-fluoropyrimidin-2-yl)-N-[2-(4-chlorophenyl)pentyl]-3-(trifluoromethyl)-1H-pyrazole-4-carboxamide]
O=C(NCC1(c2cccnc2)CCCCC1)c1cn(-c2ncccn2)nc1C(F)(F)F [Compound 151, N-[(1-pyridin-3-ylcyclohexyl)methyl]-1-pyrimidin-2-yl-3-(trifluoromethyl)-1H-pyrazole-4-carboxamide]
O=C(NCC1(c2cccnc2)CCCCC1)c1cn(-c2ncc(F)cn2)nc1C(F)(F)F [Compound 152, 1-(5-fluoropyrimidin-2-yl)-N-[(1-pyridin-3-ylcyclohexyl)methyl]-3-(trifluoromethyl)-1H-pyrazole-4-carboxamide]
O=C(NCC12CC3CC(CC(C3)C1)C2)c1cn(-c2cc(=O)[nH]cn2)nc1C(F)(F)F [Compound 153, N-(adamantan-1-ylmethyl)-1-(6-oxo-1,6-dihydropyrimidin-4-yl)-3-(trifluoromethyl)-1H-pyrazole-4-carboxamide]
Nc1nc(-n2cc(C(=O)NCC3(O)CCCCCC3)c(C(F)(F)F)n2)ncc1F [Compound 154, 1-(4-amino-5-fluoropyrimidin-2-yl)-N-[(1-hydroxycycloheptyl)methyl]-3-(trifluoromethyl)-1H-pyrazole-4-carboxamide]
Nc1ccnc(-n2cc(C(=O)NCC3(c4cccnc4)CCCCC3)c(C(F)(F)F)n2)n1 [Compound 155, 1-(4-aminopyrimidin-2-yl)-N-[(1-pyridin-3-ylcyclohexyl)methyl]-3-(trifluoromethyl)-1H-pyrazole-4-carboxamide]
Cc1cnc(-n2cc(C(=O)NCC3(c4cccnc4)CCCCC3)c(C(F)(F)F)n2)nc1N [Compound 156, 1-(4-amino-5-methylpyrimidin-2-yl)-N-[(1-pyridin-3-ylcyclohexyl)methyl]-3-(trifluoromethyl)-1H-pyrazole-4-carboxamide]
Nc1nccnc1-n1cc(C(=O)NCC2(c3cccnc3)CCCCC2)c(C(F)(F)F)n1 [Compound 157, 1-(3-aminopyrazin-2-yl)-N-[(1-pyridin-3-ylcyclohexyl)methyl]-3-(trifluoromethyl)-1H-pyrazole-4-carboxamide]
Cc1ccc(C2(CNC(=O)c3sc(-c4ncccn4)nc3C(F)(F)F)CCCCC2)cn1 [Compound 158, N-{[1-(6-methylpyridin-3-yl)cyclohexyl]methyl}-2-pyrimidin-2-yl-4-(trifluoromethyl)-1,3-thiazole-5-carboxamide]
O=C(NCC1(N2CCOCC2)CCCCC1)c1sc(-c2ncccn2)nc1C(F)(F)F [Compound 159, N-[(1-morpholin-4-ylcyclohexyl)methyl]-2-pyrimidin-2-yl-4-(trifluoromethyl)-1,3-thiazole-5-carboxamide]
CCCC(CNC(=O)c1sc(-c2ncccn2)nc1C(F)(F)F)c1ccc(Cl)cc1 (centres unmarked) [Compound 160, N-[2-(4-chlorophenyl)pentyl]-2-pyrimidin-2-yl-4-(trifluoromethyl)-1,3-thiazole-5-carboxamide]
O=C(NCC1(c2cccnc2)CCCCC1)c1sc(-c2ncccn2)nc1C(F)(F)F [Compound 161, N-[(1-pyridin-3-ylcyclohexyl)methyl]-2-pyrimidin-2-yl-4-(trifluoromethyl)-1,3-thiazole-5-carboxamide]
N[C@@H]1CCN(C2(CNC(=O)c3sc(-c4ncccn4)nc3C(F)(F)F)CCCCC2)C1 [Compound 162, N-({1-[(3R)-3-aminopyrrolidin-1-yl]cyclohexyl}methyl)-2-pyrimidin-2-yl-4-(trifluoromethyl)-1,3-thiazole-5-carboxamide]
CC(C)CC(CNC(=O)c1sc(N2CC[C@@H](N(C)C)C2)nc1C(F)(F)F)c1ccc(C(F)(F)F)cc1 (stereo partly drawn) [Compound 163, 2-[(3R)-3-(dimethylamino)pyrrolidin-1-yl]-N-{4-methyl-2-[4-(trifluoromethyl)phenyl]pentyl}-4-(trifluoromethyl)-1,3-thiazole-5-carboxamide]
O=C(NCC1(c2cccnc2)CCCCC1)c1sc(-c2cccnc2)nc1C(F)(F)F [Compound 164, 2-pyridin-3-yl-N-[(1-pyridin-3-ylcyclohexyl)methyl]-4-(trifluoromethyl)-1,3-thiazole-5-carboxamide]
CC(C)CC(CNC(=O)c1sc(-c2cccnc2)nc1C(F)(F)F)c1ccc(C(F)(F)F)cc1 (centres unmarked) [Compound 165, N-{4-methyl-2-[4-(trifluoromethyl)phenyl]pentyl}-2-pyridin-3-yl-4-(trifluoromethyl)-1,3-thiazole-5-carboxamide]
CCc1nc(-c2cccnc2)sc1C(=O)NCC1(c2cccnc2)CCCCC1 [Compound 166, 4-ethyl-2-pyridin-3-yl-N-[(1-pyridin-3-ylcyclohexyl)methyl]-1,3-thiazole-5-carboxamide]
Nc1nc(-n2cc(C(=O)NCC3(c4ccc(Cl)cc4)CCC3)c(C(F)(F)F)n2)ncc1F [Compound 167, 1-(4-amino-5-fluoropyrimidin-2-yl)-N-{[1-(4-chlorophenyl)cyclobutyl]methyl}-3-(trifluoromethyl)-1H-pyrazole-4-carboxamide]
